Test results as given in publication PMC9181852, “In Vivo and In Vitro Biological Evaluation and Molecular Docking Studies of Compounds Isolated from Micromeria biflora (Buch. Ham. ex D.Don) Benth” (Molecules, 2022).

How the values were obtained:
NCI-H226 = test: Anticancer MTT assay, NCI-H226; format: cell-based; conditions: Homo sapiens, 24 h
Experimental: The MTT assay was used to assess the cytotoxicity of salicylalazine isolated from M. biflora as per the previously documented method. For the MTT assay, Gibco BRL was combined with 100 µg/mL of penicillin sodium salts, 10% FBS (Gibco), and sodium carbonate (2 mg/mL). The prepared medium was used to keep three human cancer cell lines: human hepatoma (HepG2), human A498, and renal NCI-h226 non-small cell lung). Mouse hepatocytes, including HepG2 and HepG-R, were planted in 96-well plates. The cell lines were preserved with salicylalazine (1.5–100 μM), hatched for 24 h, and then they were tracked using the MTT procedure^14. This method was used for all tested cell lines. The IC50 value of salicylalazine in different cell lines was calculated from the concentration-effect curves. The standard drug used in this experiment was paclitaxel.

COX-2 = target: T1, COX-2 (Homo sapiens, UniProt P35354); test: In vitro COX-2 inhibition (screening kit); format: biochemical
T1 construct: purchased
T1 sequence (P35354 18-604): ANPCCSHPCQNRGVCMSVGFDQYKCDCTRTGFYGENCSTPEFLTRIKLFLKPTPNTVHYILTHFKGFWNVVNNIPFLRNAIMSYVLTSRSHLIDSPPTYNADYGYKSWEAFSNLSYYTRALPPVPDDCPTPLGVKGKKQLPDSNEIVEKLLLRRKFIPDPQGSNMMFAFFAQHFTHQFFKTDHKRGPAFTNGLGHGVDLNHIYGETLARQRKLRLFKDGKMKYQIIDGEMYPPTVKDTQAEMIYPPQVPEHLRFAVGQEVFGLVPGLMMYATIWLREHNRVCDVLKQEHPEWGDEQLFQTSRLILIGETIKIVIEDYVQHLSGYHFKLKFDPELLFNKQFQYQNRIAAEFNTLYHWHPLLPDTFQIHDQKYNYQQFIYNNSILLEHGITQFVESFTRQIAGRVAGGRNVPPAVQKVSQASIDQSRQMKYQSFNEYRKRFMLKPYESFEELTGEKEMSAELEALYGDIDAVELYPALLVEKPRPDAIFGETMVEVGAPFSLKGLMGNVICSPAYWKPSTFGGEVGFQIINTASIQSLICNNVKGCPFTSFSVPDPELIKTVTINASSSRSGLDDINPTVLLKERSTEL
Experimental: The in vitro inhibition of cyclooxygenases (COX-1 and COX-2) by the isolated compounds was determined using screening kits.

[1] = Histamine-induced paw edema; format: in vivo, mice
Experimental: (§1) Healthy mice (Balb/c) with weight ranging from 20 to 22 g and ages 9 to 10 weeks were used in this screening model. The grown animals were provided with standard laboratory conditions such as standard food and water ad libitum. The in vivo biological screening test was performed at the Department of Veterinary Medicine, College of Agriculture and Veterinary Medicine, Qassim University Buraydah, Saudi Arabia, as well as Swabi University, KP, Pakistan, according to published procedures.
The anti-inflammatory potential of salicylalazine isolated from M. biflora was determined as per our recently published method. The induction of inflammation was completed by administering 0.1 mL histamine (0.5%) to the animal’s sub plantar region. The volume of the paw was recorded 1–5 h after the administration of the inflammatory drug. Then, every group of animals was divided and pretreated orally with salicylalazine (15 and 20 mg/kg) for 1 h before making paw edema. The effect of the drug was related to that of loratadine (standard).

Hot plate analgesic test = format: in vivo, mice (Balb/c)
Experimental: as §1
The analgesic effect of salicylalazine isolated from M. biflora was obtained with help of a hot plate according to the published method. The animals were distributed into different groups according to the previously reported method. A preliminary screening test was performed on the animals using a hot plate (Harvard apparatus) sustained at 55 ± 2 °C. […] Group I (positive control) was administered with the standard drug, while Group II (negative control) was administered with normal saline. The other groups of animals were administered with 2.5, 5, 10, 15, and 20 mg/kg (PO). […] To avoid tissue damage, a cut-off time of 30 s was used for every animal. The latency time was recorded for all groups (n = 6) at consistent intervals (30, 60, 90, and 120 min).

## Oc1ccccc1/C=N/N=C/c1ccccc1O [Salicylalazine, salicylalazine]
NCI-H226
  IC50: 64.98 ± 0.11 µM
COX-2
  IC50: 9.08 ± 0.11 µM
COX-2; SI = IC50 (COX-1)/IC50 (COX-2)
  SI: 4.85
[1]; 15 mg/kg, 1 h
  Effect on histamine-induced paw edema: 78.45%
[1]; 15 mg/kg, 2 h
  Effect on histamine-induced paw edema: 74.33%
[1]; 15 mg/kg, 3 h
  Effect on histamine-induced paw edema: 58.09%
[1]; 20 mg/kg, 1 h
  Effect on histamine-induced paw edema: 90.55%
[1]; 20 mg/kg, 2 h
  Effect on histamine-induced paw edema: 93.99%
[1]; 20 mg/kg, 3 h
  Effect on histamine-induced paw edema: 86.11%
Hot plate analgesic test; dose 2.5 mg/kg, 30 min
  Latency time on hot plate: 13.33 ± 0.55 s
Hot plate analgesic test; dose 2.5 mg/kg, 60 min
  Latency time on hot plate: 14.40 ± 0.83 s
Hot plate analgesic test; dose 2.5 mg/kg, 90 min
  Latency time on hot plate: 14.33 ± 0.64 s
Hot plate analgesic test; dose 2.5 mg/kg, 120 min
  Latency time on hot plate: 14.01 ± 0.43 s
Hot plate analgesic test; dose 5 mg/kg, 30 min
  Latency time on hot plate: 15.12 ± 0.80 s
Hot plate analgesic test; dose 5 mg/kg, 60 min
  Latency time on hot plate: 18.09 ± 0.69 s
Hot plate analgesic test; dose 5 mg/kg, 90 min
  Latency time on hot plate: 18.03 ± 0.90 s
Hot plate analgesic test; dose 5 mg/kg, 120 min
  Latency time on hot plate: 17.97 ± 1.00 s
Hot plate analgesic test; dose 10 mg/kg, 30 min
  Latency time on hot plate: 18.65 ± 0.95 s
Hot plate analgesic test; dose 10 mg/kg, 60 min
  Latency time on hot plate: 20.89 ± 0.90 s
Hot plate analgesic test; dose 10 mg/kg, 90 min
  Latency time on hot plate: 20.77 ± 0.87 s
Hot plate analgesic test; dose 10 mg/kg, 120 min
  Latency time on hot plate: 19.97 ± 0.80 s
Hot plate analgesic test; dose 15 mg/kg, 30 min
  Latency time on hot plate: 21.43 ± 0.50 s
Hot plate analgesic test; dose 15 mg/kg, 60 min
  Latency time on hot plate: 22.89 ± 0.80 s
Hot plate analgesic test; dose 15 mg/kg, 90 min
  Latency time on hot plate: 22.00 ± 0.98 s
Hot plate analgesic test; dose 15 mg/kg, 120 min
  Latency time on hot plate: 21.65 ± 0.98 s
Hot plate analgesic test; dose 20 mg/kg, 30 min
  Latency time on hot plate: 23.00 ± 0.44 s
Hot plate analgesic test; dose 20 mg/kg, 60 min
  Latency time on hot plate: 23.90 ± 0.97 s
Hot plate analgesic test; dose 20 mg/kg, 90 min
  Latency time on hot plate: 22.80 ± 1.05 s
Hot plate analgesic test; dose 20 mg/kg, 120 min
  Latency time on hot plate: 22.79 ± 1.09 s
